Experimental data: patent US20040142979A1, “Heteroarylsulfonylmethyl hydroxamic acids and amides and their use as protease inhibitors” (priority 2002, published 2004)

How the values were obtained:
[1] = molecular target: T1, Human recombinant MMP-2 (Homo sapiens, UniProt P08253); assay: In vitro MMP inhibition analysis (fluorogenic peptide substrate), MMP-2; type: biochemical; details: human recombinant enzyme; 4 μM substrate (A); apparent Ki without substrate correction
T1 construct: made in house; host or cells: MMP-2-transfected p2AHT2 cells
T1 sequence (P08253 110-660): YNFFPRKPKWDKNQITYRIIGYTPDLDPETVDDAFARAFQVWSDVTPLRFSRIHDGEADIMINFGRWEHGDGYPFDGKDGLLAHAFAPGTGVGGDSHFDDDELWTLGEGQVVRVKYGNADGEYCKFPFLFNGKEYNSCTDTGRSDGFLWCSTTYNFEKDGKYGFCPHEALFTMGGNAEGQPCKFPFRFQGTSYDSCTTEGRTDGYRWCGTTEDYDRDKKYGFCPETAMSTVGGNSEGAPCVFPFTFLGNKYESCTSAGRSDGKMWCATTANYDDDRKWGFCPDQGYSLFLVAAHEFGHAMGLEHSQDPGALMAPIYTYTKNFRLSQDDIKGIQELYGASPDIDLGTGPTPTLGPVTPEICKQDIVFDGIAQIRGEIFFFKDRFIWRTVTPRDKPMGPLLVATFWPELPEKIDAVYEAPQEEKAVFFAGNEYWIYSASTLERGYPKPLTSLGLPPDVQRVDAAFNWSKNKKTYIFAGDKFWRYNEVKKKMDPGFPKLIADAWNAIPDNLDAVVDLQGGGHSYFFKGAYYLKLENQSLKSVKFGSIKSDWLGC
Procedure: (§1) Several compounds and salts were analyzed in an in vitro assay to determine their ability to inhibit the MMP cleavage of peptide substrates. Inhibition constant (Ki) were calculated from the assayed compound-MMP interactions.
(§2) Human recombinant MMP-1, MMP-2, MMP-9, MMP-13, and MMP-14 were used in this assay. All enzymes were prepared in Assignee's laboratories following usual laboratory procedures. Protocols for the preparation and use of these enzymes are available in the scientific literature. See, e.g., Enzyme Nomenclature (Academic Press, San Diego, Calif., 1992) (and the citations therein). See also, Freije et al., J. Biol. Chem., 269(24), 16766-16773 (1994).
The MMP-2 proenzyme was purified by gelatin Sepharose chromatography from MMP-2- transfected p2AHT2 cells provided by Dr. Gregory Goldberg of Washington University (St. Louis, Mo.).
(§3) All MMPs were activated using 4-aminophenylmercuric acetate (“APMA”, Sigma Chemical, St. Louis, Mo.) or trypsin. MMP-9 also was activated using human recombinant MMP-3 (purified in Assignee's laboratory following standard cloning and purification techniques).
(§4) The following fluorogenic, methoxycoumarin-containing polypeptide substrate (A) was used in the MMP inhibition assays:
(§5) MCA-ArgProLeuGlyLeuDpaAlaArgGluArgNH2 (A)
(§6) “MCA” is 7-methoxycoumarin-4-yl acetyl. Substrate (A) was prepared Assignee's laboratory. In the absence of MMP inhibitory activity, the substrate is cleaved at the Gly-Leu peptide bond. This cleavage separates the highly fluorogenic peptide from the 2,4-dinitrophenyl quencher, thus resulting in increase of fluorescent intensity.
(§7) The stock solutions of the assayed compounds and salts were prepared in 1% dimethyl sulfoxide (DMSO). These stock solutions were diluted in Buffer A (100 mM Tris-HCl, 100 mM NaCl, 10 mM CaCl2, 0.05% polyoxyethylene 23 lauryl ether, pH 7.5) to obtain solutions with different compound concentrations, i.e., assay solutions with different concentrations of the assayed MMP inhibitory compound. The experiment controls contained the same amount of Buffer A/DMSO as the assayed sample, but contained none of the tested compound or salt.
(§8) The assays from which the Ki determinations were made were performed as follows. The assayed compound samples were incubated in separate wells of untreated white polystyrene plates (Nunc Nalgene International, Rochester, N.Y.), and analyzed on a Tecan SpectraFlour Plus plate reader. The excitation wavelength was 330 nm, and the emission wavelength -420 nm. All samples (assayed compounds and controls) were incubated in separate plate wells at room temperature for 1 hr in the presence of 4 μM of MMP substrate (A). In the absence of MMP inhibitory activity, substrate (A) was cleaved at the Gly-Leu bond resulting in an increase of relative fluorescence. Inhibition was observed as a reduced rate of this increase in relative fluorescence. […] This protocol is a modification of method by Knight et al., FEBS Lett., 296(3), 263-266 (1992). Apparent inhibitory constants were determined by non-linear regression of reaction velocity as a function of inhibitor and enzyme concentration using Morrison's equation, as described by Kuzmic, P., et al., Anal. Biochem., 286(1):45-50 (2000). Modifications were made in the non-linear regression method to allow a common control reaction rate and effective enzyme concentration to be shared between all dose-response relationships on a given assay plate. Since the substrate concentration was chosen to be at or below the Km, the apparent Ki's from this analysis were reported as Ki's without correction for the influence of substrate.
(§9) The above protocols were used to determine MMP inhibition Ki constants for the compounds in Examples 1, 2, and 4-42 above. All Ki values in Table 3 are given in nM units.

[2] = molecular target: T2, Human recombinant MMP-14 (Homo sapiens, UniProt P50281); assay: In vitro MMP inhibition analysis (fluorogenic peptide substrate), MMP-14; type: biochemical; details: human recombinant catalytic domain; 4 μM substrate (A); apparent Ki without substrate correction
T2 construct: The catalytic domain enzyme was expressed in E. Coli inclusion bodies; made in house
Procedure: as §1, §2
The MMP-14 full length cDNA was provided by Dr. Gregory Goldberg of Washington University (St. Louis, Mo.). The catalytic domain enzyme was expressed in E. Coli inclusion bodies, solubilized in urea, purified on a preparative […] reverse phase HPLC column, and then refolded in the presence of zinc acetate and purified for use.
as §3, §4, §5, §6, §7, §8, §9

[3] = molecular target: T3, Human recombinant MMP-1 (Homo sapiens, UniProt P03956); assay: In vitro MMP inhibition analysis (fluorogenic peptide substrate), MMP-1; type: biochemical; details: human recombinant enzyme; 4 μM substrate (A); apparent Ki without substrate correction
T3 construct: made in house; host or cells: MMP-1-transfected HT-1080 cells (spent media)
T3 sequence (P03956 100-469): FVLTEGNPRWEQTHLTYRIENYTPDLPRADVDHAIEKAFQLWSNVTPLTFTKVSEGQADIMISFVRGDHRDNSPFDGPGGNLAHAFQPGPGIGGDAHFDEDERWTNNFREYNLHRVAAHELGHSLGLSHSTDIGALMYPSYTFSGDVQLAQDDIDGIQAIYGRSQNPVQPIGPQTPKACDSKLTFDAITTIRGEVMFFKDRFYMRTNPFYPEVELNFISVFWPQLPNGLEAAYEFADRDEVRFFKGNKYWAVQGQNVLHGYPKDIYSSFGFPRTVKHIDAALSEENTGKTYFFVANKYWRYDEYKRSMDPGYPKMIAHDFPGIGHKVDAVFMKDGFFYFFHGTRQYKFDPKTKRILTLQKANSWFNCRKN
Procedure: as §1, §2
The MMP-1 proenzyme was purified from the spent media of MMP-1-transfected HT-1080 cells provided by Dr. Harold Welgus of Washington University (St. Louis, Mo.). The protein was purified on a zinc chelating column.
as §3, §4, §5, §6, §7, §8, §9

[4] = molecular target: T4, Human recombinant MMP-9 (Homo sapiens, UniProt P14780); assay: In vitro MMP inhibition analysis (fluorogenic peptide substrate), MMP-9; type: biochemical; details: human recombinant enzyme; 4 μM substrate (A); apparent Ki without substrate correction
T4 construct: made in house; host or cells: MMP-9-transfected HT1080 cells (spent media)
T4 sequence (P14780 107-707 limits assumed): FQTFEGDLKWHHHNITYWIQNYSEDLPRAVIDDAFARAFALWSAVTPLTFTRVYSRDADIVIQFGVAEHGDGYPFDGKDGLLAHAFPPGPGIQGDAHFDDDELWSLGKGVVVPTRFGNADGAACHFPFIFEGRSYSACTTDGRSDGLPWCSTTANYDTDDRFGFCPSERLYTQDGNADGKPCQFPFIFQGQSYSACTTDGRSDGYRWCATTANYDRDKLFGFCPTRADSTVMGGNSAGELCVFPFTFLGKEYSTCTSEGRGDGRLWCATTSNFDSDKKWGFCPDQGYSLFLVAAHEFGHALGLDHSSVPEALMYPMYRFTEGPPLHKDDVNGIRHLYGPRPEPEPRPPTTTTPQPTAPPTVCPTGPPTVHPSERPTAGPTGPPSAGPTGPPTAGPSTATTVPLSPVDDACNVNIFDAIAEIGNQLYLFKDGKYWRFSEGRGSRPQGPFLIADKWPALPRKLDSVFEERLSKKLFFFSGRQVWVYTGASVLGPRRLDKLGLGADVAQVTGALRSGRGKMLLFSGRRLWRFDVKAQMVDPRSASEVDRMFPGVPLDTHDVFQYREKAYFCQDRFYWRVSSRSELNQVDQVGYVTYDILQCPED
Procedure: as §1, §2
The MMP-9 proenzyme was purified by gelatin Sepharose chromatography from spent media of MMP-9-transfected HT1080 cells provided by Dr. Howard Welgus of Washington University (St. Louis, Mo.).
as §3, §4, §5, §6, §7, §8, §9

[5] = test system: advanced, rapidly progressive, treatment-refractory solid tumor cancers (colorectal, pancreatic, ovarian, and prostate); details: cited from earlier work

SMILES	Ki [1]	Ki [2]	Ki [3]	Ki [4]	effect on cancer-specific antigens used as surrogate markers for biological activity ([5]; Phase I/II studies, patients with advanced solid tumor cancers)	most common drug-related toxicity ([5]; clinical trials, patients)
O=C(c1ccc(-c2ccc(S(=O)(=O)C3(C(=O)NO)CCOCC3)cn2)cc1)N1CCOCC1 [Example 80]	1.76 µM	> 10 µM	> 10 µM	> 10 µM	–	–
CNC(=O)[C@@H](NC(=O)[C@H](CC(C)C)[C@H](O)C(=O)NO)C(C)(C)C [Marimastat]	–	–	–	–	dose-related reduction in the rise of cancer-specific antigens	musculoskeletal pain and stiffness
O=C(c1ccc(-c2ccc(S(=O)(=O)C3(C(=O)NO)CCOCC3)cn2)cc1)N1CCCCC1 [Example 77]	4.97 µM	> 10 µM	> 10 µM	> 10 µM	–	–
